From patent publication US20210353595A1, “USE OF MELATONIN IN PREPARATION OF MEDICAMENT FOR INHIBITING AND/OR KILLING BACTERIUM” (priority 2020, published 2021)

Tests used:
[1] = tested on: Pasteurella multocida; assay: Killing bacteria by melatonin above MBC (OD600, living bacteria count); assay type: cell-based; settings: for time to kill all bacteria: FIGS. 2 and 3
Method: Into 100 mL of fresh and sterile Martin broth medium, 1 mL of Pasteurella multocida (1×10^9 CFU) at the logarithmic growth stage was added. The bacteria were cultured in a constant-temperature shaker under conditions of 37° C. and 220 rpm for 8 hours. […] After the addition of MT, the bacterial culture was continuously measured for OD600 every 20 minutes to depict a growth curve under the action of melatonin at a concentration higher than the MBC. At the same time, 100 μL of the bacterial culture was evenly coated on a Martin agar plate, and incubated at 37° C. for 24 h so as to calculate the number of living bacteria for bacterial counting.

[2] = tested on: Pasteurella multocida; assay: Leakage of bacterial cell contents; assay type: cell-based; settings: MT 1-10 mg/mL, 12 h
Method: 1 mL of Pasteurella multocida (1×10^9 CFU) at the logarithmic growth stage was added into 100 mL of fresh and sterile Martin broth medium containing different concentrations (1 mg/mL, 2 mg/mL, 3 mg/mL, 4 mg/mL, 6 mg/mL, 8 mg/mL and 10 mg/mL) of MT. Melatonin-free DMSO was used as a solvent control group, ampicillin (100 μg/mL) was used as a positive control group, and bacterial cells were cultured in a shaker at 37° C. and 220 rpm for 12 h. Thereafter, 1 mL of the bacterial solution was taken and centrifuged at 3000 r/min for 10 minutes, and the supernatant and precipitated cells were collected, respectively. At the same time, 2.5 mmol/mL of o-nitrophenyl-β-D-galactopyranoside (ONPG) and Pasteurella multocida were added to detect β-galactosidase. The concentrations of protein, alkaline phosphatase (AKP) and reducing sugar in the supernatant were determined sequentially using respective determination kits. The β-galactosidase in the supernatant was determined by measuring the optical density at 420 nm (OD420). Each experiment was carried out for three times, and each group was set in triplicate.

[3] = tested on: Streptococcus; assay: Growth curve with melatonin and citric acid; assay type: cell-based, Streptococcus pneumoniae; settings: MT 1-3 mg/mL, FIG. 27
Method: In additional studies, 1 mL of Klebsiella pneumoniae, Pseudomonas aeruginosa, Diplococcus pneumoniae and Streptococcus pneumoniae at the logarithmic growth stage was added into 100 mL of fresh and sterile Martin broth medium containing different concentrations of melatonin and citric acid (CA) (MT-1 mg/mL, MT-1 mg/mL-CA-1 mg/mL, MT-1 mg/mL-CA-2 mg/mL, MT-1 mg/mL-CA-3 mg/mL; MT-2 mg/mL, MT-2 mg/mL-CA-1 mg/mL, MT-2 mg/mL-CA-2 mg/mL, MT-2 mg/mL-CA-3 mg/mL; MT-3 mg/mL, MT-3 mg/mL-CA-1 mg/mL, MT-3 mg/mL-CA-2 mg/mL MT-3 mg/mL-CA-3 mg/mL).

[4] = tested on: citrate synthase in Streptococcus; assay: Citrate synthase activity of bacteria after treatment; assay type: cell-based, Streptococcus pneumoniae; settings: MT 1-3 mg/mL, 12 h, also with exogenous citric acid, FIG. 28
Method: (§1) Further, 1 mL of Klebsiella pneumoniae, Pseudomonas aeruginosa, Diplococcus pneumoniae and Streptococcus pneumoniae at the logarithmic growth stage was added into 100 mL of fresh and sterile Martin broth liquid medium containing different concentrations of melatonin and citric acid (MT-1 mg/mL, MT-2 mg/mL, MT-3 mg/mL, CA-1 mg/mL, CA-2 mg/mL, CA-3 mg/mL, MT-1 mg/mL-CA-1 mg/mL, MT-2 mg/mL-CA-2 mg/mL, MT-3 mg/mL-CA-3 mg/mL) added was. Melatonin-free DMSO was used as the solvent control group, and the bacterial cells were cultured in a constant-temperature shaker at 37° C. and 220 rpm for 12 h. Thereafter, 1 mL of the bacterial solution was pipetted and centrifuged at 3000 r/min for 10 minutes. The bacterial cells were then collected and determined for citrate synthase activity according to the protocol of the instructions for the kit. Each experiment was repeated three times, and each group was set in triplicate.

[5] = tested on: citrate synthase in Pneumococcus; assay: as above; assay type: cell-based, Diplococcus pneumoniae; settings: MT 1-3 mg/mL, 12 h, also with exogenous citric acid, FIG. 28
Method: as §1

[6] = tested on: Pasteurella multocida; assay: Prevention and treatment of Pasteurella multocida infection in mice; assay type: in vivo, C57BL/6 mice
Method: C57 mice purchased from the Third Military Medical University were randomly divided into four groups (10 mice in each group): a group of Pasteurella multocida+solvent control, a group of Pasteurella multocida+MT (30 mg/kg), a group of Pasteurella multocida+MT (60 mg/kg), and a group of Pasteurella multocida+MT (120 mg/kg). Before Pasteurella multocida infection, MT was injected intraperitoneally to the experimental group (injection once in the morning) for consecutive 7 days (P) or 6 days (P-1), while the control mice received the equal amount of DMSO. Thereafter, mice were infected by intraperitoneal injection of suspension of Pasteurella multocida ([…]). The survival rate of mice within 7 days was monitored and recorded. Blood samples were collected from mice, and the serum was stored at −20° C. for later ELISA test. Lung samples were collected and homogenized aseptically, and then the bacterial load was quantified by serial dilution, plate inoculation and CFU counting.
Mice were randomly divided into four groups (10 mice in each group) as described in #1, described above. In the experimental group, after infection with 2.2×10^5 CFU of Pasteurella multocida through intraperitoneal injection, MT was injected intraperitoneally for four times, with the first injection 30 minutes after Pasteurella multocida infection, then the injection was performed once every 6 hours, for three times in total. Control mice were given an equal amount of DMSO at the same four time points. Subsequently, the survival rate of mice within 7 days was recorded. At the same time, mice were euthanized at 12 h, 16 h, 24 h and 32 h after infection to collect tissue and serum samples for later ELISA and bacterial count analysis.
In order to measure the colonization of mouse lung bacteria before and after melatonin treatment, the lung tissues of mice were collected 24 hours and 32 hours after infection. The tissues were homogenized under aseptic conditions, and the bacterial content was determined by continuous dilution of 10 times in saline. […]

Compound: COc1ccc2[nH]cc(CCNC(C)=O)c2c1 [melatonin, N-acetyl-5-methoxytryptamine]
- time to kill all bacteria ([1]; 4 mg/mL of melatonin, added after 8 hours culture): 10 h
- bactericidal effect ([1]; concentration higher than the MBC (4, 8, 10 mg/mL)): significant bactericidal effect in a dose-dependent manner
- time to kill all bacteria ([1]; higher concentration of melatonin (8, 10 mg/mL)): 4 h
- activity of extracellular β-galactosidase ([2]; OD420, FIG. 7): increase
- content of extracellular proteins ([2]; supernatant, FIG. 4): increase
- content of extracellular alkaline phosphatase ([2]; supernatant, FIG. 6): increase
- content of extracellular reducing sugar ([2]; supernatant, FIG. 8): increase
- activity of extracellular ATPase ([2]; FIG. 5): increase
- antibacterial activity [3]: exhibits antibacterial activity
- enzyme activity of citrate synthase [4]: not influenced
- enzyme activity of citrate synthase [5]: not influenced
- bacterial colonization in the lung tissues of mice ([6]; 24 hours and 32 hours after infection, prevention and treatment groups vs DMSO group): significantly reduced
- decrease of bacterial colonization amount (CFU/g) ([6]; dose of 120 mg/kg, lung tissues): about 2 log 10
- survival rates of mice ([6]; prevention and treatment groups vs DMSO group, intraperitoneal, FIGS. 29-34): significantly improved
